Experimental data taken from PubChem BioAssay AID1963430 (Molecular Pharmacology Branch, DTP, NCI, 2024).
Values joined by “and” are separate entries in the source; they are usually repeats but may differ in a detail not shown here. Equal entries are not always repeated.

System: 521955-158-R2-J5-PDC complex spheroid growth, % test/control
Assay: Anticancer human tumor 521955-158-R2-J5-PDC patient-derived pancreatic carcinoma cell line growth inhibition [Asc]
Settings: for viability, T/C: stronger effect = lower value
Protocol: Multicellular complex tumor spheroid response to apoptosis pathway targeting inhibitors Alrizomadlin, Pelcitoclax, and Dasminapant in combination with a variety of drugs and investigational agents in selected tumor cell lines
The MDM2 inhibitor alrizomadlin, the Bcl-2/Bcl-xL inhibitor pelcitoclax, and the IAPs inhibitor dasminapant were evaluated both individually and in combination with standard of care and investigational anticancer small molecules within a complex spheroid model of solid tumors. . Complex spheroids include a stromal component modeled by human endothelial cells (HUVEC) and fibroblasts modeled by human mesenchymal stem cells (MSCs). The concentration ranges selected for each drug and investigational agent were based upon clinically achievable concentrations if the clinical Cmax of the agent was known.
Compounds. The drugs and investigational agents: alrizomadlin (APG-115; NSC831270), pelcitoclax (APG-1252; NSC835773), dasminapant (APG-1387;NSC834197), TAK-243 (NSC785004), copanlisib (NSC809693), olaparib (NSC753686), talazoparib (NSC767125), cobimetinib (NSC 768068), eltanexor (KPT-8602, NSC 794443), abemaciclib (NSC 768073), sotorasib (NSC818433), adagrasib (NSC 831453), MRTX-1133 (NSC 836407), Iadademestat (ORY1001, NSC 806812), and RMC-4630 (NSC839698), were obtained from the NCI Developmental Therapeutics Program Chemical Repository. The FDA-approved anticancer drug set is available from the Developmental Therapeutics Program at https://dtp.cancer.gov/organization/dscb/obtaining/available plates.htm. […] The stock solutions were prepared in dimethyl sulfoxide (DMSO, Sigma-Aldrich, St. Louis, MO, cat. D2650) at 800-fold the tested concentration and stored at -70 degrees C prior to their use. All drugs and investigational agents were tested over a range starting from a high concentration at or near the clinical Cmax and decreasing in half-log increments. If the clinical Cmax for an agent had not been determined, the highest concentration tested was 10 microM.
The patient-derived cancer (PDC) cell lines include five colon adenocarcinomas: 186277-243-T-J2-PDC, 616215-338-R-J1-PDC, 439559-082-T-J2-PDC, 463943-066-T-J2-PDC, and 519858-162-T-J1-PDC; three pancreatic carcinomas: 323965-272-R-J2-PDC, 521955-158-R6-J3-PDC, and 521955-158-R2-J5-PDC; two uterine sarcomas: 327498-152-R-J2-PDC and 993429-296-R-J1-PDC; two rhabdomyosarcomas: 755483-174-R-J1-PDC and 772245-204-R-J1-PDC; two soft tissue sarcomas: 126254-015-R-J1-PDC and 494315-158-R-J1-PDC; two malignant fibrous histiocytomas: 317291-083-R-J1-PDC and 596521-263-R-J1-PDC; two breast carcinomas: 171881-019-R-J1-PDC and 885512-296-R-J2-PDC; and one ovarian carcinoma: 6556581-035-R-J-PDC were obtained from the NCI PDMR, (https://pdmr.cancer.gov). The established cell lines HSSY-2 synovial sarcoma (RRID:CVCL 8719), SYO-1 synovial sarcoma (RRID:CVCL_7146), MPNST malignant peripheral neural sheath tumor were obtained from the Sloan Kettering Institute. The following established cell lines were purchased from the American Type Culture Collection (ATCC, Manassas, VA), Sor the received from the NCI repository:, PANC-1 pancreatic carcinoma (CRL-1469, RRID:CVCL_0480), OVCAR-5 ovarian carcinoma (RRID:CVCL_1628), OVCAR-8 ovarian carcinoma (RRID:CVCL_1629), , MCF-7 breast carcinoma (CRL-12584, RRID:CVCL_0031), MDA-MB-231 breast carcinoma (CRL-12532, RRID:CVCL_0062), NCI-H1876 small cell lung carcinoma (CRL-5902, RRID:CVCL_1503), NCI-H510A small cell lung carcinoma (HTB-184, RRID:CVCL_1565), NCI-H1417 (CRL-5869, RRID:CVCL_1469), and NCI-H196 small cell lung carcinoma (CRL-5823, RRID:CVCL_1509). Dr. Peter Houghton (Greehey Children's Cancer Research Institute, University of Texas Health Science Center, San Antonio, TX) provided Rh-18 rhabdomyosarcoma (RRID:CVCL_1659). Pooled donor human umbilical vein endothelial cells (HUVEC, Lonza, cat. CC-2519) and human mesenchymal stem cells (hMSC, Lonza, cat. PT-2501) were purchased from Lonza (Walkersville, MD).
Cell Culture. […]
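Note: spheroids exposed to agents for 7 days before readout.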
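Throughout, for viability, T/C: 100% = DMSO vehicle control viability.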

Work on CNC(C)C(=O)NC1CN(S(=O)(=O)c2cccc(S(=O)(=O)N3CCC4CCC(C(=O)NC(c5ccccc5)c5ccccc5)N4C(=O)C(NC(=O)C(C)NC)C3)c2)CCC2CCC(C(=O)NC(c3ccccc3)c3ccccc3)N2C1=O (stereo not drawn) + CCN1C(C(=O)NC23CCC(C(=O)O)(CC2)CC3)C(c2cccc(Cl)c2F)C2(C(=O)Nc3cc(Cl)ccc32)C12CCCCC2 yielded an IC50 (curve of first compound, second compound 0.03 µM) greater than 1 µM, an IC50 (curve of first compound, second compound 0.0949 µM) greater than 1 µM and an IC50 (curve of first compound, second compound 0.3 µM) greater than 1 µM. It also gave an IC50 (curve of first compound, second compound 0.949 µM) greater than 1 µM, an IC50 (curve of first compound, second compound 3 µM) greater than 1 µM and a viability, T/C (second compound 0.03 µM, first compound 0.00316 µM) of 141%. For the same molecule, the viability, T/C (second compound 0.03 µM, first compound 0.01 µM) was 76.6%, the viability, T/C (second compound 0.03 µM, first compound 0.0316 µM) was 86.4% and the viability, T/C (second compound 0.03 µM, first compound 0.1 µM) was 65.2%. For the same molecule, the viability, T/C (second compound 0.03 µM, first compound 0.316 µM) was 66%, the viability, T/C (second compound 0.03 µM, first compound 1 µM) was 76% and the viability, T/C (second compound 0.0949 µM, first compound 0.00316 µM) was 111%. For the same molecule, the viability, T/C (second compound 0.0949 µM, first compound 0.01 µM) was 95.8%, the viability, T/C (second compound 0.0949 µM, first compound 0.0316 µM) was 90.7% and the viability, T/C (second compound 0.0949 µM, first compound 0.1 µM) was 101%. It also gave a viability, T/C (second compound 0.0949 µM, first compound 0.316 µM) of 105%, a viability, T/C (second compound 0.0949 µM, first compound 1 µM) of 115% and a viability, T/C (second compound 0.3 µM, first compound 0.00316 µM) of 120%. The viability, T/C (second compound 0.3 µM, first compound 0.01 µM) was 133%, the viability, T/C (second compound 0.3 µM, first compound 0.0316 µM) was 84.3% and the viability, T/C (second compound 0.3 µM, first compound 0.1 µM) was 97.6%. It also gave a viability, T/C (second compound 0.3 µM, first compound 0.316 µM) of 94%, a viability, T/C (second compound 0.3 µM, first compound 1 µM) of 102% and a viability, T/C (second compound 0.949 µM, first compound 0.00316 µM) of 87.8%. It also gave a viability, T/C (second compound 0.949 µM, first compound 0.01 µM) of 102%, a viability, T/C (second compound 0.949 µM, first compound 0.0316 µM) of 158% and a viability, T/C (second compound 0.949 µM, first compound 0.1 µM) of 116%. For the same molecule, the viability, T/C (second compound 0.949 µM, first compound 0.316 µM) was 84.2%, the viability, T/C (second compound 0.949 µM, first compound 1 µM) was 106% and the viability, T/C (second compound 3 µM, first compound 0.00316 µM) was 166%. It also gave a viability, T/C (second compound 3 µM, first compound 0.01 µM) of 102%, a viability, T/C (second compound 3 µM, first compound 0.0316 µM) of 141% and a viability, T/C (second compound 3 µM, first compound 0.1 µM) of 120%. For the same molecule, the viability, T/C (second compound 3 µM, first compound 0.316 µM) was 151% and the viability, T/C (second compound 3 µM, first compound 1 µM) was 123%.

CCN1C(C(=O)NC23CCC(C(=O)O)(CC2)CC3)C(c2cccc(Cl)c2F)C2(C(=O)Nc3cc(Cl)ccc32)C12CCCCC2 (stereo not drawn) was tested, and the viability, T/C (compound 0.00949 µM) was 94.9% and 87.6%, the IC50 (compound alone, run of 09/27/2022) was greater than 3 µM and the IC50 (curve of compound) was greater than 3 µM.

In the case of CCN1C(C(=O)NC23CCC(C(=O)O)(CC2)CC3)C(c2cccc(Cl)c2F)C2(C(=O)Nc3cc(Cl)ccc32)C12CCCCC2 (stereo not drawn) + CNC(C)C(=O)NC1CN(S(=O)(=O)c2cccc(S(=O)(=O)N3CCC4CCC(C(=O)NC(c5ccccc5)c5ccccc5)N4C(=O)C(NC(=O)C(C)NC)C3)c2)CCC2CCC(C(=O)NC(c3ccccc3)c3ccccc3)N2C1=O, the IC50 (curve of first compound, second compound 0.01 µM) is reported as greater than 3 µM, the IC50 (curve of first compound, second compound 0.0316 µM) is reported as greater than 3 µM and the IC50 (curve of first compound, second compound 0.1 µM) is reported as greater than 3 µM. For the same molecule, the IC50 (curve of first compound, second compound 0.316 µM) was greater than 3 µM, the IC50 (curve of first compound, second compound 1 µM) was greater than 3 µM and the viability, T/C (second compound 0.01 µM, first compound 0.00949 µM) was 107%. For the same molecule, the viability, T/C (second compound 0.01 µM, first compound 0.03 µM) was 112%, the viability, T/C (second compound 0.01 µM, first compound 0.0949 µM) was 90.5% and the viability, T/C (second compound 0.01 µM, first compound 0.3 µM) was 91.9%. It also gave a viability, T/C (second compound 0.01 µM, first compound 0.949 µM) of 112%, a viability, T/C (second compound 0.01 µM, first compound 3 µM) of 116% and a viability, T/C (second compound 0.0316 µM, first compound 0.00949 µM) of 119%. The viability, T/C (second compound 0.0316 µM, first compound 0.03 µM) was 114%, the viability, T/C (second compound 0.0316 µM, first compound 0.0949 µM) was 100% and the viability, T/C (second compound 0.0316 µM, first compound 0.3 µM) was 114%. The viability, T/C (second compound 0.0316 µM, first compound 0.949 µM) was 97.1%, the viability, T/C (second compound 0.0316 µM, first compound 3 µM) was 97% and the viability, T/C (second compound 0.1 µM, first compound 0.00949 µM) was 91.2%. The viability, T/C (second compound 0.1 µM, first compound 0.03 µM) was 116%, the viability, T/C (second compound 0.1 µM, first compound 0.0949 µM) was 97.2% and the viability, T/C (second compound 0.1 µM, first compound 0.3 µM) was 101%. It also gave a viability, T/C (second compound 0.1 µM, first compound 0.949 µM) of 114%, a viability, T/C (second compound 0.1 µM, first compound 3 µM) of 118% and a viability, T/C (second compound 0.316 µM, first compound 0.00949 µM) of 94.9%. The viability, T/C (second compound 0.316 µM, first compound 0.03 µM) was 106%, the viability, T/C (second compound 0.316 µM, first compound 0.0949 µM) was 106% and the viability, T/C (second compound 0.316 µM, first compound 0.3 µM) was 98.6%. For the same molecule, the viability, T/C (second compound 0.316 µM, first compound 0.949 µM) was 96.1%, the viability, T/C (second compound 0.316 µM, first compound 3 µM) was 119% and the viability, T/C (second compound 1 µM, first compound 0.00949 µM) was 83.3%. The viability, T/C (second compound 1 µM, first compound 0.03 µM) was 108%, the viability, T/C (second compound 1 µM, first compound 0.0949 µM) was 115% and the viability, T/C (second compound 1 µM, first compound 0.3 µM) was 103%. For the same molecule, the viability, T/C (second compound 1 µM, first compound 0.949 µM) was 105% and the viability, T/C (second compound 1 µM, first compound 3 µM) was 108%.
